Laboratory results as given in patent US10568328B2, “Methods and compositions for weed control” (Monsanto Technology LLC, priority 2013, dated 2020).

B1: T25454: A. palmeri OEP80 trigger dsRNA polynucleotide, SEQ ID NO: 1544 (nucleic acid, listed as Amaranthus palmeri)
chain: GATACTAGGGATGGTATTAGATTGGTCTTTCAGGTAGAACCAAACCAGGAGTTTAGAGGACTGGTGTGC
modifications: double-stranded RNA trigger, chemistry not given here, further chemistry not given here
B2: T25472: A. palmeri OEP80 trigger dsRNA polynucleotide, SEQ ID NO: 1562 (nucleic acid, listed as Amaranthus palmeri)
chain: GTCATAAAAGATTTCTACAACAGCGCTCTTACGGCAAGTGGGAATACTCATGATAATATGC
modifications: double-stranded RNA trigger, chemistry not given here, further chemistry not given here

Test system: Amaranthus palmeri plants (R22 glyphosate resistant biotype)
Experiment: OEP80 trigger dsRNA polynucleotides followed by 2X WMAX, injury rating (FIG. 1)
Assay type: in vivo
Settings: 8 nmol/plant, 0.5-1.0 percent Silwet L-77 and buffer, 2X WMAX one day later; rated 14 days after WMAX; baseline 40 percent
Experimental: FIG. 1. Treatment of Amaranthus palmeri with dsRNA trigger polynucleotides targeting OEP80.
The following procedure is used for all assays described in this example. Approximately four-week old Amaranthus palmeri plants (glyphosate-resistant Palmer amaranth, “R-22”) are used in this assay. Plants are treated with 0.5-1.0 percent Silwet L-77 solution freshly made with ddH2O. Two fully expanded leaves per plant (one cotyledon, one true leaf) are treated with the polynucleotide/Silwet L-77 solution. Final concentration for each dsRNA polynucleotide was 25 microM) unless otherwise stated. Twenty microliters of the solution are applied to the top surface of each of the two pre-treated leaves to provide a total of 40 microliters (1-4 nmol polynucleotide) for each plant.
Spray solutions are prepared the same day as spraying. Single oligonucleotide molecules are applied at rates between 0.04 and 0.18 mg/ml in 20 mM potassium phosphate buffer (pH 6.8) are added to spray solutions 15 to 50 minutes before spraying. One-to-two-ml spray solutions were applied using a custom low-dead-volume sprayer (“milli applicator”) at 8-30 gpa (gallons per acre) to one-to-four inch tall plants. Treated plants are place in a greenhouse set for either a 26.7/21.1° C. or 29.4/21.1° C. 14/10 hour temperature and supplemental light schedule. The amount of response relative to unsprayed treatments is collected at various time intervals up to 21 days after treatment.
A common spray nozzle used for all applications made with the track sprayer is the Turbo Teejet air induction nozzle (015) nozzle with air pressure set at a minimum of 20 psi (pounds per square inch or […]). This style nozzle is currently being utilized to lessen shear forces that can damage or otherwise change large macromolecules that can seen with other nozzle styles. The height of the spray nozzle is to be 16-18 inches above top of plant material. Treatments are to be made when plants reach the desired size, height or leaf stage.
Application rates are chosen so as to achieve percent control ratings in the range of 50 percent at the lowest rate to 90 percent control at the highest rate. The rates in this control range provide the best possible efficacy comparisons among formulations, allowing separation of relative performance of test samples. The rate of herbicide used in these studies is typically at the manufacturer's recommended use rate. On occasion lower or higher rates may be necessary depending on test objectives. The rate structure used for a given test will be dependent on the environmental conditions at the time of spray application (time of year), the plant species being treated (highly susceptible or tough to kill) and age (or size) of plants to be treated.
Amaranthus palmeri plants (R22 glyphosate resistant biotype) were treated following the protocol described in Example 3. Trigger dsRNA polynucleotides shown in Table 5 (SEQ ID NO: 1535-1573, plus strand sequence illustrated) are targeting the A. palmeri OEP80 gene coding region (SEQ ID NO: 365). The polynucleotides were topically applied at 8 nmol/plant in a composition comprising 0.5-1.0 percent Silwet L-77 and buffer followed one day later by treatment with 2× WeatherMAX (WMAX). Injury rating of the treated plants was conducted 14 days after the WMAX treatment. The control treatments were buffer alone and 2 rates (4 nmol and 8 nmol) of a trigger polynucleotide (oligo 5.3) targeting the A. palmeri EPSPS coding gene sequence. The average baseline level of injury effect of buffer plus WMAX was set at 40 percent for this experiment. […] Additionally, 4 regions of the target gene sequence were identified in which the polynucleotides in those regions were particularly effective, these regions are between nucleotide positions 369-701, 1016-1168, 1364-1622 and 1683-1792 of SEQ ID NO: 365.

Molecule | Injury rating: enhancement of the effect of WMAX (FIG. 1)
T25452: A. palmeri OEP80 trigger dsRNA polynucleotide, SEQ ID NO: 1542 (GGAGGCATTAATGGCATTGAAAGCTTGCCGGGCGAATTCAGCTTTGACTGTGC; double-stranded RNA trigger, chemistry not given here, further chemistry not given here; listed as Amaranthus palmeri) [Oligo T25452] | able to enhance the effect of WMAX
T25455: A. palmeri OEP80 trigger dsRNA polynucleotide, SEQ ID NO: 1545 (GCGAAGGAGCTAATGTTCTCCCTTCCAAGTTTGTAGAGGATTCATTTC; double-stranded RNA trigger, chemistry not given here, further chemistry not given here; listed as Amaranthus palmeri) [Oligo T25455] | able to enhance the effect of WMAX
T25456: A. palmeri OEP80 trigger dsRNA polynucleotide, SEQ ID NO: 1546 (GTGATGGATATGGGAAAGTGGTCAATATCAGGCGTTTGGATGAAGTGATTGATTC; double-stranded RNA trigger, chemistry not given here, further chemistry not given here; listed as Amaranthus palmeri) [Oligo T25456] | able to enhance the effect of WMAX
T25457: A. palmeri OEP80 trigger dsRNA polynucleotide, SEQ ID NO: 1547 (GATTCTATAAATGGATGGTACATGGAGCGTGGTCTTTTTGGCATGGTTTC; double-stranded RNA trigger, chemistry not given here, further chemistry not given here; listed as Amaranthus palmeri) [Oligo T25457] | able to enhance the effect of WMAX
T25464: A. palmeri OEP80 trigger dsRNA polynucleotide, SEQ ID NO: 1554 (GTTTCTCGGCTGGTGGTGGTATTTCGAGCGGGATAACGAGCGGACCGC; double-stranded RNA trigger, chemistry not given here, further chemistry not given here; listed as Amaranthus palmeri) [Oligo T25464] | able to enhance the effect of WMAX
T25465: A. palmeri OEP80 trigger dsRNA polynucleotide, SEQ ID NO: 1555 (GCTATCAGGTTTAATTGGAAGCTTTGCATATTCTCACAGGAATCTGTTTGGAAAAAATC; double-stranded RNA trigger, chemistry not given here, further chemistry not given here; listed as Amaranthus palmeri) [Oligo T25465] | able to enhance the effect of WMAX
T25466: A. palmeri OEP80 trigger dsRNA polynucleotide, SEQ ID NO: 1556 (GAAAAAATCAAAAAGTAAATGTCTCTCTTGAAAGAGGCCAAATCGACTCTATCTTCC; double-stranded RNA trigger, chemistry not given here, further chemistry not given here; listed as Amaranthus palmeri) [Oligo T25466] | able to enhance the effect of WMAX
T25471: A. palmeri OEP80 trigger dsRNA polynucleotide, SEQ ID NO: 1561 (GACTTACGTTTCAGCATGCTGGTGTCCGTGATGAAAAAGGGAACCCCGTC; double-stranded RNA trigger, chemistry not given here, further chemistry not given here; listed as Amaranthus palmeri) [Oligo T25471] | able to enhance the effect of WMAX
T25473: A. palmeri OEP80 trigger dsRNA polynucleotide, SEQ ID NO: 1563 (GCTGCTTGCCAAAGGCGAGTGTGCCTACACGGGTGACTTAGGATCCTCAATGTTAGTC; double-stranded RNA trigger, chemistry not given here, further chemistry not given here; listed as Amaranthus palmeri) [Oligo T25473] | able to enhance the effect of WMAX
T25474: A. palmeri OEP80 trigger dsRNA polynucleotide, SEQ ID NO: 1564 (GTCTTAAGCATGGAACAAGGTCTTCCTATCTATCCTGAGTGGCTGTGTTTTAATC; double-stranded RNA trigger, chemistry not given here, further chemistry not given here; listed as Amaranthus palmeri) [Oligo T25474] | able to enhance the effect of WMAX
T25475: A. palmeri OEP80 trigger dsRNA polynucleotide, SEQ ID NO: 1565 (GTTTTAATCGAGTCAACGCTCGTGCTAGGTCAGGGGTGGACATTGGTCCAGC; double-stranded RNA trigger, chemistry not given here, further chemistry not given here; listed as Amaranthus palmeri) [Oligo T25475] | able to enhance the effect of WMAX
T25477: A. palmeri OEP80 trigger dsRNA polynucleotide, SEQ ID NO: 1567 (GTTTGCGATCGGTGGTACAAATAGTGTGAGAGGATATGAAGAAGGTGCCGTTGGC; double-stranded RNA trigger, chemistry not given here, further chemistry not given here; listed as Amaranthus palmeri) [Oligo T25477] | able to enhance the effect of WMAX
T25478: A. palmeri OEP80 trigger dsRNA polynucleotide, SEQ ID NO: 1568 (GCTCAGGCCTTTCATACGTAGTGGGCTGTGGAGAAGTTTCCTTCCCTCTGTATGGTC; double-stranded RNA trigger, chemistry not given here, further chemistry not given here; listed as Amaranthus palmeri) [Oligo T25478] | able to enhance the effect of WMAX
T29213: A. palmeri OEP80 trigger dsRNA polynucleotide, SEQ ID NO: 1573 (GGATATGAAGAAGGTGCCGTTGGC; double-stranded RNA trigger, chemistry not given here, further chemistry not given here; listed as Amaranthus palmeri) [Oligo T29213] | able to enhance the effect of WMAX
B1 | able to enhance the effect of WMAX
B2 | able to enhance the effect of WMAX
